Laboratory results taken from the supplement of paper PMC11451515.

Experiments:
Settings in all cases: 48 h
[1] = test system: P12-Ichikawa; experiment: cell viability relative to DMSO control; higher = less cytotoxic
How it was run: (§1)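 Library compounds in DMSO were pin-dosed into 1536-well plates (5 μl) holding NOMO1 or SEM (500 cells/well) or P12-Ichikawa (1000 cells/well) leukemia cells, across an 11-point threefold series of 47 μM to 0.79 nM. Each cell line had been adapted for at least four passages in each medium. CellTiter-Glo One luminescence was read after 48 h at 37°C. Viability is the per-plate percentage relative to DMSO wells, with cell-free wells as background.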

[2] = test system: SEM cells; experiment: as above
How it was run: as §1

[3] = test system: NOMO1; experiment: as above
How it was run: as §1

[4] = test system: P12-Ichikawa; experiment: AUC of viability dose-response curve (% viability x log10 dose units); higher = less sensitive
How it was run: (§2)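 Leukemia cells adapted to each medium were seeded in 1536-well plates (500 or 1000 cells/well) and given library compounds in DMSO for 48 h at 37°C. The 11 threefold doses spanned 47 μM to 0.79 nM, and CellTiter-Glo One luminescence was normalised per plate to DMSO and cell-free wells before four-parameter log-logistic fitting on log10 dose. Area under the curve was integrated with the trapezoidal rule, scaling curves above full viability and removing curves that failed quality control.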

[5] = test system: NOMO1; experiment: as above
How it was run: as §2

[6] = HPLM + 10% dialyzed FBS, 0.000781 µM
[7] = HPLM + 10% dialyzed FBS, 0.00234 µM
[8] = HPLM + 10% dialyzed FBS, 0.00702 µM
[9] = HPLM + 10% dialyzed FBS, 0.0211 µM
[10] = HPLM + 10% dialyzed FBS, 0.0632 µM
[11] = HPLM + 10% dialyzed FBS, 0.19 µM
[12] = HPLM + 10% dialyzed FBS, 0.569 µM
[13] = HPLM + 10% dialyzed FBS, 1.71 µM
[14] = HPLM + 10% dialyzed FBS, 5.12 µM
[15] = HPLM + 10% dialyzed FBS, 15.4 µM
[16] = HPLM + 10% dialyzed FBS, 46.1 µM
[17] = RPMI 5 mM glucose + 10% FBS, 0.000781 µM
[18] = RPMI 5 mM glucose + 10% FBS, 0.00234 µM
[19] = RPMI 5 mM glucose + 10% FBS, 0.00702 µM
[20] = RPMI 5 mM glucose + 10% FBS, 0.0211 µM
[21] = RPMI 5 mM glucose + 10% FBS, 0.0632 µM
[22] = RPMI 5 mM glucose + 10% FBS, 0.19 µM
[23] = RPMI 5 mM glucose + 10% FBS, 0.569 µM
[24] = RPMI 5 mM glucose + 10% FBS, 1.71 µM
[25] = RPMI 5 mM glucose + 10% FBS, 5.12 µM
[26] = RPMI 5 mM glucose + 10% FBS, 15.4 µM
[27] = RPMI 5 mM glucose + 10% FBS, 46.1 µM
[28] = RPMI 5 mM glucose + 10% dialyzed FBS, 0.000781 µM
[29] = RPMI 5 mM glucose + 10% dialyzed FBS, 0.00234 µM
[30] = RPMI 5 mM glucose + 10% dialyzed FBS, 0.00702 µM
[31] = RPMI 5 mM glucose + 10% dialyzed FBS, 0.0211 µM
[32] = RPMI 5 mM glucose + 10% dialyzed FBS, 0.0632 µM
[33] = RPMI 5 mM glucose + 10% dialyzed FBS, 0.19 µM
[34] = RPMI 5 mM glucose + 10% dialyzed FBS, 0.569 µM
[35] = RPMI 5 mM glucose + 10% dialyzed FBS, 1.71 µM
[36] = RPMI 5 mM glucose + 10% dialyzed FBS, 5.12 µM
[37] = RPMI 5 mM glucose + 10% dialyzed FBS, 15.4 µM
[38] = RPMI 5 mM glucose + 10% dialyzed FBS, 46.1 µM
[39] = RPMI 5 mM glucose + 10% dialyzed FBS

For `CCC(=O)N[C@H]1CC[C@H](C(=O)N(C)c2ccc(-c3nc4ccccc4o3)cc2)C1`, the cell viability [1, 6] was 95.4%, the cell viability [1, 7] was 97.1% and the cell viability [1, 8] was 101%. The cell viability [1, 9] was 102%, the cell viability [1, 10] was 100% and the cell viability [1, 11] was 99.5%. For the same molecule, the cell viability [1, 12] was 110%, the cell viability [1, 13] was 103% and the cell viability [1, 14] was 107%. The cell viability [1, 15] was 104%, the cell viability [1, 16] was 84.4% and the cell viability [1, 17] was 92.3%. The cell viability [1, 18] was 95.4%, the cell viability [1, 19] was 96.4% and the cell viability [1, 20] was 91.3%. The cell viability [1, 21] was 101%, the cell viability [1, 22] was 105% and the cell viability [1, 23] was 108%. For the same molecule, the cell viability [1, 24] was 95.6%, the cell viability [1, 25] was 97.5% and the cell viability [1, 26] was 100%. For the same molecule, the cell viability [1, 27] was 54.8%, the cell viability [1, 28] was 89.9% and the cell viability [1, 29] was 92.2%. The cell viability [1, 30] was 91.5%, the cell viability [1, 31] was 98.3% and the cell viability [1, 32] was 94%. It also gave a cell viability [1, 33] of 99.7%, a cell viability [1, 34] of 98.2% and a cell viability [1, 35] of 109%. The cell viability [1, 36] was 99%, the cell viability [1, 37] was 94.6% and the cell viability [1, 38] was 65.1%. The cell viability [2, 6] was 75.9%, the cell viability [2, 7] was 68% and the cell viability [2, 8] was 99.7%. For the same molecule, the cell viability [2, 9] was 94.2%, the cell viability [2, 10] was 99.8% and the cell viability [2, 11] was 104%. The cell viability [2, 12] was 101%, the cell viability [2, 13] was 89% and the cell viability [2, 14] was 110%. For the same molecule, the cell viability [2, 15] was 115%, the cell viability [2, 16] was 96.4% and the cell viability [2, 17] was 83.3%. The cell viability [2, 18] was 51.8%, the cell viability [2, 19] was 78.4% and the cell viability [2, 20] was 89.5%. It also gave a cell viability [2, 21] of 84.7%, a cell viability [2, 22] of 101% and a cell viability [2, 23] of 99.9%. The cell viability [2, 24] was 82.2%, the cell viability [2, 25] was 74.7% and the cell viability [2, 26] was 74.2%. The cell viability [2, 27] was 40%, the cell viability [2, 28] was 91.9% and the cell viability [2, 29] was 51.8%. The cell viability [2, 30] was 83.5%, the cell viability [2, 31] was 98.9% and the cell viability [2, 32] was 98.4%. It also gave a cell viability [2, 33] of 97%, a cell viability [2, 34] of 96% and a cell viability [2, 35] of 102%. It also gave a cell viability [2, 36] of 94.7%, a cell viability [2, 37] of 91% and a cell viability [2, 38] of 45.3%. It also gave a cell viability [3, 6] of 85.7%, a cell viability [3, 7] of 106% and a cell viability [3, 8] of 74.4%. For the same molecule, the cell viability [3, 9] was 111%, the cell viability [3, 10] was 103% and the cell viability [3, 11] was 92.5%. It also gave a cell viability [3, 12] of 97.6%, a cell viability [3, 13] of 98.2% and a cell viability [3, 14] of 101%. It also gave a cell viability [3, 15] of 98.5%, a cell viability [3, 16] of 78.3% and a cell viability [3, 17] of 95.8%. The cell viability [3, 18] was 100%, the cell viability [3, 19] was 89.6% and the cell viability [3, 20] was 85.1%. The cell viability [3, 21] was 99.4%, the cell viability [3, 22] was 101% and the cell viability [3, 23] was 97.4%. The cell viability [3, 24] was 94.2%, the cell viability [3, 25] was 86% and the cell viability [3, 26] was 88.6%. It also gave a cell viability [3, 27] of 96.9%, a cell viability [3, 28] of 83.8% and a cell viability [3, 29] of 89.2%. For the same molecule, the cell viability [3, 30] was 89.8%, the cell viability [3, 31] was 87.8% and the cell viability [3, 32] was 86.1%. It also gave a cell viability [3, 33] of 86%, a cell viability [3, 34] of 94.1% and a cell viability [3, 35] of 90.4%. For the same molecule, the cell viability [3, 36] was 84.6%, the cell viability [3, 37] was 81% and the cell viability [3, 38] was 84.6%. For the same molecule, the “AUC of viability dose-response curve” value ([4]; HPLM + 10% dialyzed FBS) was 477, the “AUC of viability dose-response curve” value ([4]; RPMI 5 mM glucose + 10% FBS) was 458 and the “AUC of viability dose-response curve” value [4, 39] was 453. For the same molecule, the “AUC of viability dose-response curve” value ([5]; HPLM + 10% dialyzed FBS) was 454, the “AUC of viability dose-response curve” value ([5]; RPMI 5 mM glucose + 10% FBS) was 449 and the “AUC of viability dose-response curve” value [5, 39] was 415.
